In patent publication US12071424B2, “IRE1 small molecule inhibitors” (Cornell University, priority 2017, dated 2024):

Assays:
IRE1a [1] = target: T1, IRE1a (Homo sapiens, UniProt O75460); assay: In vitro FRET assay (IRE1a cleavage of XBP1 RNA probe); assay type: biochemical; conditions: 2 nM SignalChem IRE1a, tested as Formic Acid Salt (37: HCl Salt)
T1 construct: purchased SignalChem
In short: Human

IRE1a [2] = assay: IRE1a Endoribonuclease Nanoluciferase Assay (XBP1 luciferase reporter in 293T cells); assay type: cell-based, human; conditions: Homo sapiens, HEK-293T, ER stressor, tested as Formic Acid Salt (37: HCl Salt)
In short: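 293T cells transiently transfected with a PGK-Luc2-P2A-XBP1u-Nanoluciferase-Pest reporter, replated after 6 h, then treated next day with ER stressors ± inhibitors. After lysis, firefly luminescence then nanoluciferase luminescence read sequentially (1000 ms integration each).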

293T cells = assay: Growth assay (cytotoxicity); assay type: cell-based, human; conditions: Formic Acid Salt (37: HCl Salt); for viability at 0.185 µM / viability at 0.5556 µM / viability at 1.667 µM / viability at 5 µM: Homo sapiens, HEK-293T
Description: A growth assay was performed to evaluate the compounds disclosed herein for cytotoxicity. Briefly, 5,000,000 293T cells were resuspended in 18 mL of cDMEM for a final concentration of […]. […] In a separate 96 well dilution plate, 199 uL cDMEM and 1 uL of DMSO or any one of the compounds disclosed herein (shown as Test Compound 1, 2, 3, 4, 5, or 6 below) were added to wells A4, A8, C4, C8, E4, E8, G4, and G8, 133.3 uL cDMEM was added to wells 1, 2, 3, 5, 6, and 7 in rows A, C, E and G of the dilution plate. Compounds were serially diluted leftwards in threefold dilutions (66.7 uL into 133.3 uL cDMEM). 20 uL of each dilution was transferred in duplicate (duplicates in vertical paired wells) to the cells plated in the 96-well plate shown in Table 5, to the total concentrations shown below. 200 uL cDMEM was addled to media wells (wells G5-H8). The plate was then placed in a humidified chamber for a […], and then photographed (media was more yellow in wells with potent cell growth). Absorbance was then measured at ˜[…] (lower for more acidic media) and ˜450 nM (higher for more acidic media).

hERG channel = target: T2, hERG channel (Homo sapiens, UniProt Q12809); assay: hERG potassium ion channel automated planar clamp (QPatch) in stable CHO cell line; assay type: cell-based; conditions: Formic Acid Salt (37: HCl Salt), read-out: hERG channel blockade Mean IC50
T2 construct: expressed in transfected cells
Description: Blockade of the cardiac ion channel coded by the hERG gene can lead to cardiac arrhythmia. […] To determine the viability of the compounds disclosed herein as pharmacological agents that would not affect the hERG channel blockade, a standard automated planar clamp method was employed to determine the IC50 for various test compounds on their inhibition of the channel. An electrophysiological assay was prepared to measure the electric current passing through the hERG channel expressed in a stable CHO cell line by applying the planar clamp method. This assay was performed using the automated QPatch platform (Sophion, Denmark) which allows fast and accurate electrophysiological characterization of the hERG ion channel and the determination of IC50 values for the test compounds, as shown in Table 9.

in vivo = conditions: mouse, po, 30 mg/kg

T1 sequence (O75460 19-977): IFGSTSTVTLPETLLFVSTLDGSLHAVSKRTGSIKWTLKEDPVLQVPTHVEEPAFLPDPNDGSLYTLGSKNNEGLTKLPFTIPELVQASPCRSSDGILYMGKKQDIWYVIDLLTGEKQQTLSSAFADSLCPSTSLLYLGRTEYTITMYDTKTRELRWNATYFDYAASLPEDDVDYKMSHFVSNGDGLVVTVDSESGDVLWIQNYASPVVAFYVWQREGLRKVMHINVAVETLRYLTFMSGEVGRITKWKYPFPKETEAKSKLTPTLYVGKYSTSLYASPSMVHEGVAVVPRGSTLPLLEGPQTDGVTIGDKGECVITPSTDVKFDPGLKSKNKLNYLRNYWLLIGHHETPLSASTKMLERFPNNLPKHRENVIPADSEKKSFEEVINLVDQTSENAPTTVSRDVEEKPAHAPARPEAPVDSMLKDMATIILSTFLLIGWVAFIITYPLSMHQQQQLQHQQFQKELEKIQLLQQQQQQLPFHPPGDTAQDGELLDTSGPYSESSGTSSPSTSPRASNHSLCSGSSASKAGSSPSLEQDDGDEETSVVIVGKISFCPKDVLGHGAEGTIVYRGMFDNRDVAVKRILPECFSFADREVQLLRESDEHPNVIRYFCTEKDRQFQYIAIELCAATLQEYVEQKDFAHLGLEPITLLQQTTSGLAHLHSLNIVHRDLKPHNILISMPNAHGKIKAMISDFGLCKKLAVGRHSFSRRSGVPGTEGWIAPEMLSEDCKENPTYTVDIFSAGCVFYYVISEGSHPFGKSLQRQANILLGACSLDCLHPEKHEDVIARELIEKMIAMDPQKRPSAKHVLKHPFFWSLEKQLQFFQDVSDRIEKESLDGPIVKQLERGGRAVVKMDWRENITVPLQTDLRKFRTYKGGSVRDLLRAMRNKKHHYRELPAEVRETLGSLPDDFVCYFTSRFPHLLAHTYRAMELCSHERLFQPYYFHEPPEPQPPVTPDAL
T2 sequence (Q12809 whole entry): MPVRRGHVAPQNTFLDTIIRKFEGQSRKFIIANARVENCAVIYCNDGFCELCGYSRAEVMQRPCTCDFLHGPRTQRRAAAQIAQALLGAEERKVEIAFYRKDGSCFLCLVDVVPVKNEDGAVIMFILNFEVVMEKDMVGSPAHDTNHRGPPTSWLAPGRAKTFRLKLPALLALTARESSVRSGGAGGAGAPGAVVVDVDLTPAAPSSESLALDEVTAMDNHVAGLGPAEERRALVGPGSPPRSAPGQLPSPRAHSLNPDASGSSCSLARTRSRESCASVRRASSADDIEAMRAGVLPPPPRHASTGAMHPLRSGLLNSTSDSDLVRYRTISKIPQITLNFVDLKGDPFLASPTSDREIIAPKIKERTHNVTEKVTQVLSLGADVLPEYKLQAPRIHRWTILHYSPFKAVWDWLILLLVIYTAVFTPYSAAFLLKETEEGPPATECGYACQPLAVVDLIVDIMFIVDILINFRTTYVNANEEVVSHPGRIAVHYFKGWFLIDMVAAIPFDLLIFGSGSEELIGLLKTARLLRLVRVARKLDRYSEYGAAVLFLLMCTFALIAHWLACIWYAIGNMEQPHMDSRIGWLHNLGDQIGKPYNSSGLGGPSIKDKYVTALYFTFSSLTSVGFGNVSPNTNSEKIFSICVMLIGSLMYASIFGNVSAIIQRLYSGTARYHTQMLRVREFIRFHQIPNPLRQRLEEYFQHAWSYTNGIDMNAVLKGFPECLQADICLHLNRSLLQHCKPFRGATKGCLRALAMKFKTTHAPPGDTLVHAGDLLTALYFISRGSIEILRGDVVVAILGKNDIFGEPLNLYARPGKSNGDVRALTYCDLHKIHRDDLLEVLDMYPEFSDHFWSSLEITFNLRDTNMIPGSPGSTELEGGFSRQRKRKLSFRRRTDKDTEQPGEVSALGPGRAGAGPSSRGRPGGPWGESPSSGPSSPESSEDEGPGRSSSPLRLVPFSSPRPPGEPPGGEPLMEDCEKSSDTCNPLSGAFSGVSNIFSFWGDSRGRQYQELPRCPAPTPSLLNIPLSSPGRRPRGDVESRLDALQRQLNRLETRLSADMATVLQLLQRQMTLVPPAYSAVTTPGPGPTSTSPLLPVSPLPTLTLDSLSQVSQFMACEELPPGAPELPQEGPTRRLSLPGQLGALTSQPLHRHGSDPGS

SMILES | IC50 (IRE1a [1]) [nM] | EC50 (IRE1a [2]) [nM] | viability at 0.185 µM (293T cells) [%] | viability at 0.5556 µM (293T cells; 0.5556 uM) [%] | viability at 1.667 µM (293T cells; 1.667 uM) [%] | viability at 5 µM (293T cells; 5 uM) [%] | IC50 (hERG channel) [µM] | % Growth at 0.5556 uM (293T cells; 0.5556 uM) | % Growth at 1.667 uM (293T cells; 1.667 uM) | % Growth at 5 uM (293T cells; 5 uM) | bioavailability (in vivo) [%]
CCc1cc(-c2cnc(NS(=O)(=O)c3ccccc3Cl)nc2OC)cc2cnc(N[C@H]3CC[C@H](N)CC3)nc12 [Compound 46, N-(5-(2-(((1r,4r)-4-aminocyclohexyl)amino)-8-ethylquinazolin-6-yl)-4-methoxypyrimidin-2-yl)-2-chlorobenzene-sulfonamide] | ≤ 5 | ≤ 5 | 75 to 100 | 75 to 100 | 75 to 100 | 75 to 100 |  |  |  |  | 
CCc1cc(-c2ncc(NS(=O)(=O)c3ccccc3Cl)cn2)cc2cnc(N[C@H]3CC[C@H](N)CC3)nc12 [Compound 33] | ≤ 5 | ≤ 5 | 75 to 100 | 75 to 100 | 75 to 100 | 50 to 75 |  |  |  |  | 
CCc1cc(-c2cc(NS(=O)(=O)c3ccccc3Cl)n[nH]2)cc2cnc(N[C@H]3CC[C@H](N)CC3)nc12 [Compound 29, N-(5-(2-(((1r,4r)-4-aminocyclohexyl)amino)-8-ethylquinazolin-6-yl)-1H-pyrazol-3-yl)-2-chlorobenzene-sulfonamide] | ≤ 5 | 100 to 10000 | 75 to 100 | 75 to 100 | 75 to 100 | 75 to 100 |  |  |  |  | 
CCc1cc(-c2ccc(NS(=O)(=O)c3ccccc3Cl)nc2OC)cc2cnc(N[C@H]3CC[C@H](N)CC3)nc12 [Compound 37, N-(5-(2-(((1r,4r)-4-aminocyclohexyl)amino)-8-ethylquinazolin-6-yl)-6-methoxypyridin-2-yl)-2-chlorobenzene-sulfonamide] | ≤ 5 | ≤ 5 |  |  |  |  | 10 to 50 | D (D: >75% to ≤100%) | C (C: >50% to ≤75%) | B (B: >25% to ≤50%) | 17
CCc1cc(-c2ccc(NS(=O)(=O)c3ccccc3Cl)nc2C)cc2cnc(N[C@H]3CC[C@H](N(C)C)CC3)nc12 [Compound 91, 2-chloro-N-(5-(2-(((1r,4r)-4-(dimethylamino)cyclohexyl)amino)-8-ethylquinazolin-6-yl)-6-methylpyridin-2-yl)benzenesulfonamide] |  | ≤ 5 |  |  |  |  |  |  |  |  | 66
CCc1cc(-c2cnc(NS(=O)(=O)c3ccccc3Cl)c(F)c2)cc2cnc(N[C@H]3CC[C@H](N)CC3)nc12 [Compound 55, N-(5-(2-(((1r,4r)-4-aminocyclohexyl)amino)-8-ethylquinazolin-6-yl)-3-fluoropyridin-2-yl)-2-chlorobenzene-sulfonamide] | ≤ 5 | ≤ 5 | 75 to 100 | 75 to 100 | 75 to 100 | 75 to 100 |  |  |  |  | 
CCc1cc(-c2ccc(NS(=O)(=O)c3ccccc3Cl)cn2)cc2cnc(N[C@H]3CC[C@H](N)CC3)nc12 [Compound 28] | ≤ 5 | ≤ 5 | 75 to 100 | 75 to 100 | 50 to 75 | 25 to 50 |  |  |  |  | 

The next lines start with results.

IC50 (IRE1a [1]) [nM] | EC50 (IRE1a [2]) [nM] | SMILES | viability at 0.185 µM (293T cells) [%] | viability at 0.5556 µM (293T cells; 0.5556 uM) [%] | viability at 1.667 µM (293T cells; 1.667 uM) [%] | viability at 5 µM (293T cells; 5 uM) [%] | IC50 (hERG channel) [µM] | % Growth at 0.5556 uM (293T cells; 0.5556 uM) | % Growth at 1.667 uM (293T cells; 1.667 uM) | % Growth at 5 uM (293T cells; 5 uM) | bioavailability (in vivo) [%]
≤ 5 | ≤ 5 | CCc1cc(-c2ccc(NS(=O)(=O)c3ccccc3Cl)nc2)cc2cnc(N[C@H]3CC[C@H](N)CC3)nc12 [Compound 27, N-(5-(2-(((1r,4)-4-aminocyclohexyl)amino)-8-ethylquinazolin-6-yl)pyridin-2-yl)-2-chlorobenzene-sulfonamide] | 75 to 100 | 75 to 100 | 50 to 75 | 25 to 50 |  |  |  |  | 
≤ 5 | ≤ 5 | CCc1cc(-c2cnc(NS(=O)(=O)c3ccccc3Cl)nc2C)cc2cnc(N[C@H]3CC[C@H](N)CC3)nc12 [Compound 23] | 75 to 100 | 50 to 75 | 50 to 75 | 75 to 100 |  |  |  |  | 
≤ 5 | ≤ 5 | CCc1cc(-c2ccc(NS(=O)(=O)c3ccccc3Cl)c(F)c2)cc2cnc(N[C@H]3CC[C@H](N)CC3)nc12 [Compound 24, N-(4-(2-(((1r,4r)-4-aminocyclohexyl)amino)-8-ethylquinazolin-6-yl)-2-fluorophenyl)-2-chlorobenzene-sulfonamide] | 75 to 100 | 75 to 100 | 50 to 75 | 50 to 75 | 1 to 10 |  |  |  | 
≤ 5 | 5 to 50 | CCc1cc(-c2nnc(NS(=O)(=O)c3ccccc3Cl)cc2OC)cc2cnc(N[C@H]3CC[C@H](N)CC3)nc12 [Compound 65, N-(6-(2-(((1r,4r)-4-aminocyclohexyl)amino)-8-ethylquinazolin-6-yl)-5-methoxypyridazin-3-yl)-2-chlorobenzene-sulfonamide] | 75 to 100 | 75 to 100 | 75 to 100 | 50 to 75 |  |  |  |  | 
≤ 5 | 5 to 50 | CCc1cc(NS(=O)(=O)c2ccccc2Cl)ccc1-c1cc(CC)c2nc(N[C@H]3CC[C@H](N)CC3)ncc2c1 [Compound 34, N-(4-(2-(((1r,4r)-4-aminocyclohexyl)amino)-8-ethylquinazolin-6-yl)-3-ethylphenyl)-2-chlorobenzene-sulfonamide] | 75 to 100 | 75 to 100 | 75 to 100 | ≤ 25 |  |  |  |  | 
≤ 5 | ≤ 5 | CCc1cc(-c2ccc(NS(=O)(=O)c3ccccc3Cl)c(F)c2)cc2cnc(N[C@H]3CC[C@H](N(C)C)CC3)nc12 [Compound 69, 2-chloro-N-(4-(2-(((1r,4r)-4-(dimethylamino)cyclohexyl)amino)-8-ethylquinazolin-6-yl)-2-fluorophenyl) benzene-sulfonamide] |  | 75 to 100 | 50 to 75 | 50 to 75 | 10 to 50 |  |  |  | 
≤ 5 | ≤ 5 | CCc1cc(-c2cnc(NS(=O)(=O)c3ccccc3Cl)cn2)cc2cnc(N[C@H]3CC[C@H](N)CC3)nc12 [Compound 25, N-(S-(2-(((1r,4r)-4-aminocyclohexyl)amino)-8-ethylquinazolin-6-yl)pyrazin-2-yl)-2-chlorobenzene-sulfonamide] | 75 to 100 | 75 to 100 | 75 to 100 | 75 to 100 |  |  |  |  | 
≤ 5 | 5 to 50 | CCc1cc(-c2nnc(NS(=O)(=O)c3ccccc3Cl)cc2C)cc2cnc(N[C@H]3CC[C@H](N)CC3)nc12 [Compound 67, N-(6-(2-(((1r,4r)-4-aminocyclohexyl)amino)-8-ethylquinazolin-6-yl)-5-methylpyridazin-3-yl)-2-chlorobenzene-sulfonamide] | 75 to 100 | 75 to 100 | 50 to 75 | 50 to 75 |  |  |  |  | 
